Assay results published in paper PMC11354674, “Genome Mining and Genetic Manipulation Reveal New Isofuranonaphthoquinones in Nocardia Species” (International Journal of Molecular Sciences, 2024).
Where two headings read alike, the source gives them in different places. Blank lines part the entries; values can stand above or below the molecule they belong to.

What was measured:
in vitro = assay: in vitro; set-up: species or system A549, Huh7, HeLa, U87MG; MTT colorimetric cell growth / viability assay; conditions: human, hacat cells
Description: Lung cancer cells (A549), liver cancer cells (Huh7), cervical cancer cells (HeLa), brain cancer cells (U87MG), and a normal cell line (human keratinocyte cell line (HaCaT)) were acquired from the Korean Cell Line Bank (Seoul, Republic of Korea). Ten percent fetal bovine serum (FBS) was added to Dulbecco’s modified Eagle’s medium (DMEM) to culture the HeLa A549 cells. Similarly, Huh7 cells were grown in DMEM obtained from Corning Cellgro Manassas, VA, USA. Glioblastoma U87MG cells were cultured in a minimum essential medium (MEM) supplemented with 10% FBS. DMEM supplemented with 10% FBS, 100 µg/mL streptomycin, and 100 µg/mL benzylpenicillin was used to grow HaCaT cell lines. Each cell line was kept in an incubator with 5% CO2 that was humidified at 37 °C (Thermo Scientific, Vantaa, Finland). For the cell growth assays, various cancer cells at 2 × 10^3 cells/well were plated in 96-well culture plates. NOC-IBR1 and NOC-IBR2 were added to each well at various concentrations (200 μM, 100 μM, 50 μM, 25 μM, 12.5 μM, 6.25 μM, 3.16 μM, 1.56 μM, and 0.78 μM), and the cells were incubated for 72 h. […] Figure 4 The cytotoxicity of NOC-IBR1 and NOC-IBR2 was assessed across different cell lines. […] Cell growth was measured using the MTT colorimetric assay. […] Similarly, the IC50 values of doxorubicin in the above cell lines were also calculated (Table S4). […]

Huh7 = assay: cells; set-up: species or system A549, HeLa, U87MG, HaCaT; MTT colorimetric cell growth / viability assay; conditions: Homo sapiens, Huh-7, 72 h; read-out: NOC-IBR1 IC50
Description: (§1) Lung cancer cells (A549), liver cancer cells (Huh7), cervical cancer cells (HeLa), brain cancer cells (U87MG), and a normal cell line (human keratinocyte cell line (HaCaT)) were acquired from the Korean Cell Line Bank (Seoul, Republic of Korea). Ten percent fetal bovine serum (FBS) was added to Dulbecco’s modified Eagle’s medium (DMEM) to culture the HeLa A549 cells. Similarly, Huh7 cells were grown in DMEM obtained from Corning Cellgro Manassas, VA, USA. Glioblastoma U87MG cells were cultured in a minimum essential medium (MEM) supplemented with 10% FBS. DMEM supplemented with 10% FBS, 100 µg/mL streptomycin, and 100 µg/mL benzylpenicillin was used to grow HaCaT cell lines. Each cell line was kept in an incubator with 5% CO2 that was humidified at 37 °C (Thermo Scientific, Vantaa, Finland). For the cell growth assays, various cancer cells at 2 × 10^3 cells/well were plated in 96-well culture plates. NOC-IBR1 and NOC-IBR2 were added to each well at various concentrations (200 μM, 100 μM, 50 μM, 25 μM, 12.5 μM, 6.25 μM, 3.16 μM, 1.56 μM, and 0.78 μM), and the cells were incubated for 72 h. A 3-(4,5-dimethylthiazol-2-yl)-2,5-diphenyltetrazolium bromide (MTT) colorimetric assay was used to measure cell growth (cell viability).  Figure 4 The cytotoxicity of NOC-IBR1 and NOC-IBR2 was assessed across different cell lines. Each cell line was maintained in a 5% CO2 humidified incubator at 37 °C. The cells were seeded at a density of 2 × 10^3 cells/well in 96-well culture plates for the cell growth assay. Various concentrations of the compounds (200 μM, 100 μM, 50 μM, 25 μM, 12.5 μM, 6.25 μM, 3.16 μM, 1.56 μM, and 0.78 μM) were added to each well, and the cells were incubated for 72 h. Cell growth was measured using the MTT colorimetric assay. NOC-IBR1 and NOC-IBR2 were further subjected to cytotoxicity assays against four different cancer cell lines using a colorimetric test of 3-(4,5-dimethylthiazol-2-yl)-2,5-diphenyltetrazolium bromide (MTT) (Figure 4). […] Similarly, the IC50 values of doxorubicin in the above cell lines were also calculated (Table S4). […] These findings further indicate that NOC-IBR1 and NOC-IBR2 substantially reduce the viability of A549, Huh7, HeLa, and U87MG cells in a dose-dependent manner. This is the first report on the cytotoxicity of these two compounds against cancer cell lines.

A549 = assay: cells; set-up: species or system Huh7, HeLa, U87MG, HaCaT; MTT colorimetric cell growth / viability assay; conditions: Homo sapiens, A549, 72 h; read-out: NOC-IBR1 IC50
Description: as §1

HeLa = assay: cells; set-up: species or system A549, Huh7, U87MG, HaCaT; MTT colorimetric cell growth / viability assay; conditions: Homo sapiens, HeLa, 72 h; read-out: NOC-IBR1 IC50
Description: as §1

U87MG = assay: cells; set-up: species or system A549, Huh7, HeLa, HaCaT; MTT colorimetric cell growth / viability assay; conditions: Homo sapiens, U-87 MG, 72 h; read-out: NOC-IBR1 IC50
Description: as §1

ThnM3 = test system: T1, ThnM3; assay: O-methylation assay, HPLC, nonlinear Michaelis-Menten fit; format: biochemical, Nocardia sp. CS682; conditions: 50 mM Tris, pH 8 in methods but pH 7.5 in Figure 5 legend, 5 µg ThnM3
T1 construct: methyltransferase of the tetrahydroxynaphthalene (THN) gene cluster

Structure (SMILES): COc1cccc2c1C(=O)c1c(O)c3c(c(O)c1C2=O)C[C@@](O)(C(=O)CO)C[C@@H]3O[C@H]1C[C@H](N)[C@H](O)[C@H](C)O1 [Doxorubicin]
CC50 at 72 h (in vitro; read-out: Doxorubicin IC50 (μM), normal cells): 0.681 µM

Km (ThnM3; 2 mM SAM (saturating), read-out: apparent Km): 15.6 ± 1.75 µM
Structure (SMILES): COc1cc2c(c(O)c1O)C(=O)c1c(coc1C)C2 [NOC-IBR1, 6-methoxy-7,8-dihydroxy-1-methylnaphtho [2,3-c] furan-9-one]
CC50 at 72 h (in vitro; read-out: NOC-IBR1 IC50 (μM), normal cells): > 200 µM
IC50 (Huh7): 44.4 µM
IC50 (A549): 200 µM
IC50 (HeLa): 61.1 µM
IC50 (U87MG): 120 µM

Km (ThnM3; methyl donor, 100 µM NOC-IBR1 (near-saturating), read-out: Km): 39.7 ± 6.08 µM
Structure (SMILES): C[S+](CC[C@H](N)C(=O)O)C[C@H]1O[C@@H](n2cnc3c(N)ncnc32)[C@H](O)[C@@H]1O (some centres unmarked) [SAM]
